# Source: ChEMBL document CHEMBL6083286, “Discovery of ERD-12310A as an Exceptionally Potent and Orally Efficacious PROTAC Degrader of Estrogen Receptor α (ERα)” (J Med Chem, 2024)
# Active and inactive are the calls of the source. No cut-off for these calls is given here.
# Experiments:
# [1] = biological target: Cytochrome P450 2D6 (Homo sapiens, UniProt P10635); assay: Inhibition of CYP2D6 in human liver microsomes incubated for 5 mins in presence of NADPH by LC-MS/MS analysis; assay type: ADME, Microsome
# Cytochrome P450 2D6, sequence (P10635 whole entry): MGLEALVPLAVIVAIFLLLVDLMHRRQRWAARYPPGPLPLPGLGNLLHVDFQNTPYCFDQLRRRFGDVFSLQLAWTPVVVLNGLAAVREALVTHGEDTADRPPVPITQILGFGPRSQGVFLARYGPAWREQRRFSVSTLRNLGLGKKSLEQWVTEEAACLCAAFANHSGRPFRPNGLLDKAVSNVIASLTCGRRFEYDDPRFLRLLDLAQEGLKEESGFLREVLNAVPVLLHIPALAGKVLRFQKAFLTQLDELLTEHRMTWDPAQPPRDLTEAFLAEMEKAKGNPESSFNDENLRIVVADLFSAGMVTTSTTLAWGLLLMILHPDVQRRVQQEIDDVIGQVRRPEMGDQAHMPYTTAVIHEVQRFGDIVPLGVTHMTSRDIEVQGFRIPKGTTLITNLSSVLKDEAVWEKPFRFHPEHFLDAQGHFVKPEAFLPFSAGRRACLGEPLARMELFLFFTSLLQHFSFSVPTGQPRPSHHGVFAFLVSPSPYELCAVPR
# [2] = tested on: T47D; assay: PROTAC activity at CRBN/ ERalpha D538G mutant in human T47D cells assessed as reduction in ERalpha protein level at 10 to 100 nM measured at 7 hrs by Western blot analysis; assay type: cell-based; design: scale not given: the % may be the effect or the level left; conditions: dose 10-100 nM
# [3] = Toxicity in SCID mouse implanted with human MCF7 cells ESR1 Y537S mutant assessed as change in body weight at 3 to 30 mg/kg, po administered 5 days a week for 7 weeks; assay type: organism-based; conditions: in vivo, 1176 h, dose 3-30 mg/kg
# [4] = biological target: Cytochrome P450 2C19 (Homo sapiens, UniProt P33261); assay: Inhibition of CYP2C19 in human liver microsomes incubated for 5 mins in presence of NADPH by LC-MS/MS analysis; assay type: ADME, Microsome
# Cytochrome P450 2C19, sequence (P33261 whole entry): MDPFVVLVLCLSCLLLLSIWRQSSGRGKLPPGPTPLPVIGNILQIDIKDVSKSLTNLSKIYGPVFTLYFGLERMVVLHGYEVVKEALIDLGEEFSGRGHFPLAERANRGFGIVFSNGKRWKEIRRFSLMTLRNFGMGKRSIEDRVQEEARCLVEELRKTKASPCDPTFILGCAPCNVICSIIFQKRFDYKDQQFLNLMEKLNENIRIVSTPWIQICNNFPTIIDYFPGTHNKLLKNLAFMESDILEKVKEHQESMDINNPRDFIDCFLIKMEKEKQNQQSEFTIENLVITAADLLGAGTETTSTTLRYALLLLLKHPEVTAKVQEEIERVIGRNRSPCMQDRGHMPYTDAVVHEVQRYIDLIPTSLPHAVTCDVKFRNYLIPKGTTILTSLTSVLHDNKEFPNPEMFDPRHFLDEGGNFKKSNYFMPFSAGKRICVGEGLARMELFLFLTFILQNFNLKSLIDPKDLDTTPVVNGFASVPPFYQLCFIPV
# [5] = Drug concentration in SCID mouse plasma at 30 mg/kg, po administered daily for 3 days and measured after 24 hrs by LC-MS/MS analysis; assay type: ADME, organism-based
# [6] = Volume of distribution at steady state in dog at 3 mg/kg, po or 1 mg/kg, iv measured upto 24 hrs by LC-MS/MS analysis; assay type: ADME, organism-based, Canis lupus familiaris; conditions: in vivo
# [7] = biological target: T1, Protein cereblon/Estrogen receptor (Homo sapiens, UniProt P03372+Q96SW2); assay: In-vivo PROTAC activity at CRBN/ERalpha in SCID mouse xenografted with human MCF7 cells assessed as reduction in ERalpha level in tumor at 30 mg/kg, po administered daily for 3 days and measured after 24 hrs by Western blot analysis; assay type: functional, organism-based; design: scale not given: the % may be the effect or the level left; conditions: time 96.0 hrs
# T1 sequence (P03372 whole entry, looked up): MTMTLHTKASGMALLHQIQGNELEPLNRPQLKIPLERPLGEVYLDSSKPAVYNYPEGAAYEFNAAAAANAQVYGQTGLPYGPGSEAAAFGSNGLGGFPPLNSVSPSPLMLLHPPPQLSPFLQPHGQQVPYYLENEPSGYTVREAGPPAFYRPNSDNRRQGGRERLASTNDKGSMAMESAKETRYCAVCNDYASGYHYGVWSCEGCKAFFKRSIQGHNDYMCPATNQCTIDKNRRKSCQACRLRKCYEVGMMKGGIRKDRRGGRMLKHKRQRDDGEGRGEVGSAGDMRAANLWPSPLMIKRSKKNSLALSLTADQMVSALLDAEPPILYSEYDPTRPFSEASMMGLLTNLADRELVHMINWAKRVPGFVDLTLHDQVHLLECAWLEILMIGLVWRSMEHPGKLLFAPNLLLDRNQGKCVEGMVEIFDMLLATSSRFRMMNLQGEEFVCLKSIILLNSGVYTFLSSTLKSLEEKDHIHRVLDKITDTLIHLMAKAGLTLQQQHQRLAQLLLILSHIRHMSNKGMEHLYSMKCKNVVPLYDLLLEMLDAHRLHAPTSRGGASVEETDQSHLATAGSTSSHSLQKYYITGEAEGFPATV
# T1 sequence (Q96SW2 whole entry, looked up): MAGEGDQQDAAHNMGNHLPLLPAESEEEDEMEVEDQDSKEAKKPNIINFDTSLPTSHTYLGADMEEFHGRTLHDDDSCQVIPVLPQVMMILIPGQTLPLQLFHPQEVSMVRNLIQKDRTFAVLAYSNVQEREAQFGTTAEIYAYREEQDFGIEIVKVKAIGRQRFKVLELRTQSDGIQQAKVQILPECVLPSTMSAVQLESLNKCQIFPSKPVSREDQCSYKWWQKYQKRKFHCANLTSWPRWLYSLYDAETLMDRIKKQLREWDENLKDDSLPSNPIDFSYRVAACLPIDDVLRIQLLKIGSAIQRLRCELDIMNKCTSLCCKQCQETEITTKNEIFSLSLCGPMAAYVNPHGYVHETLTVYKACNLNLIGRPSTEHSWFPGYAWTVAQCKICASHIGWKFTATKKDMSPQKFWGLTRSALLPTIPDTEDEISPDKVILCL
# [8] = Stability in dog plasma assessed as half life; assay type: ADME, cell-free, Canis lupus familiaris
# [9] = biological target: T1, Protein cereblon/Estrogen receptor; assay: In-vivo PROTAC activity at CRBN/ERalpha in SCID mouse xenografted with human MCF7 cells assessed as reduction in ERalpha level in tumor at 10 mg/kg, po administered daily for 3 days and measured after 6 hrs by Western blot analysis; assay type: functional, organism-based; design: scale not given: the % may be the effect or the level left; conditions: time 78.0 hrs
# [10] = Oral bioavailability in rat at 3 mg/kg measured upto 24 hrs by LC-MS/MS analysis; assay type: ADME, organism-based; conditions: in vivo
# [11] = biological target: T1, Protein cereblon/Estrogen receptor; assay: PROTAC activity at CRBN/ERalpha in human T47D cells assessed as reduction in ERalpha protein level at 3 nM measured at 4 hrs by Western blot analysis; assay type: cell-based
# [12] = biological target: Voltage-gated inwardly rectifying potassium channel KCNH2 (Homo sapiens, UniProt Q12809); assay: Inhibition of hERG in HEK293 cells at 10 uM by whole-cell patch clamp assay relative to control; assay type: toxicity, cell-based; conditions: hek293, 10 µM
# Voltage-gated inwardly rectifying potassium channel KCNH2, sequence (Q12809 whole entry): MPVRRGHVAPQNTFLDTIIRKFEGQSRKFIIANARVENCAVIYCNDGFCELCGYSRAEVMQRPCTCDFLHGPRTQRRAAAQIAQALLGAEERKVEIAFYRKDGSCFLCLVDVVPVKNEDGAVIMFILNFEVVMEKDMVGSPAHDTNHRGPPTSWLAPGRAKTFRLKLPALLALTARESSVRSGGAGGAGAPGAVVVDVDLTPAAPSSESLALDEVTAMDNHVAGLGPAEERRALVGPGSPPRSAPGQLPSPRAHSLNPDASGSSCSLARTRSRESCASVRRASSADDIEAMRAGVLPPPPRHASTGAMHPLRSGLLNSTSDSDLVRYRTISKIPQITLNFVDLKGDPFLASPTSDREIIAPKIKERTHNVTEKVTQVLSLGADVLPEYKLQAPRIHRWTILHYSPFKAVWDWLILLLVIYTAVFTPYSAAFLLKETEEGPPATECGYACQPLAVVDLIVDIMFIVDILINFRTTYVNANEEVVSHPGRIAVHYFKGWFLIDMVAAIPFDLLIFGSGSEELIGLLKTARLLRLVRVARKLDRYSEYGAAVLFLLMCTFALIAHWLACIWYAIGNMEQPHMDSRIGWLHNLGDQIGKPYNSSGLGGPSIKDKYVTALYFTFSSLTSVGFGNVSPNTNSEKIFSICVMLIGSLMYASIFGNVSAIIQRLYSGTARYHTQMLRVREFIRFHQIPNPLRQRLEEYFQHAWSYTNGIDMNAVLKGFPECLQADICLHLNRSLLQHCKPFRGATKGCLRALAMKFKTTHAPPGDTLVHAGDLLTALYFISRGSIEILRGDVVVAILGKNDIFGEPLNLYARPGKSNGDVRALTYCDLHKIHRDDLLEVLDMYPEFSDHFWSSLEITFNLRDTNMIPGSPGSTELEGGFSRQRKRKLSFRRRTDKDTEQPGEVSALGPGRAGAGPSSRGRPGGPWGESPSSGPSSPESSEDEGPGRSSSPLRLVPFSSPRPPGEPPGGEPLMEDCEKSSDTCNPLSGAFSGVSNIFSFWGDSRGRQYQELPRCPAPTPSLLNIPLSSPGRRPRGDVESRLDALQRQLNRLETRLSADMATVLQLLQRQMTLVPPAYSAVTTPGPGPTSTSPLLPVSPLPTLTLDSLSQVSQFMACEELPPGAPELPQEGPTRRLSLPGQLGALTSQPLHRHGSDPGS
# [13] = biological target: T1, Protein cereblon/Estrogen receptor; assay: PROTAC activity at CRBN/ERalpha in human T47D cells assessed as reduction in ERalpha protein level at 10 nM measured at 4 hrs by Western blot analysis; assay type: cell-based
# [14] = Metabolic stability rat liver microsome assessed as half life; assay type: ADME; conditions: microsomes
# [15] = Drug concentration in SCID mouse tumor at 10 mg/kg, po administered once daily measured at 24 hrs by LC-MS/MS analysis; assay type: ADME, organism-based, Neoplasm; conditions: read-out: Ct
# [16] = tested on: T47D; assay: PROTAC activity at CRBN/ ERalpha Y537S mutant in human T47D cells assessed as reduction in ERalpha protein level at 10 to 100 nM measured at 7 hrs by Western blot analysis; assay type: cell-based; design: scale not given: the % may be the effect or the level left; conditions: dose 10-100 nM
# [17] = biological target: T1, Protein cereblon/Estrogen receptor; assay: PROTAC activity at CRBN/ERalpha in human MCF7 cells assessed as reduction in ERalpha protein level at 5 nM measured for 4 hrs in presence of cereblon ligand C1 by Western blot analysis; assay type: cell-based
# [18] = Plasma protein binding in mouse; assay type: ADME, cell-free
# [19] = Plasma protein binding in human; assay type: ADME, cell-free
# [20] = biological target: T1, Protein cereblon/Estrogen receptor; assay: PROTAC activity at CRBN/ERalpha in human MCF7 cells assessed as reduction ER level measured for 5 hrs by Western blot analysis; assay type: cell-based; conditions: dose 0.5-500 nM
# [21] = tested on: MCF7; assay: Antitumor activity against human MCF7 cells expressing ESR1 Y537S mutant xenografted in SCID mouse assessed as tumor growth inhibition at 10 mg/kg, po administered 5 days a week for 5 weeks; assay type: functional; conditions: MCF7, 840 h, read-out: TGI
# [22] = Half life in dog at 3 mg/kg, po or 1 mg/kg, iv measured upto 24 hrs by LC-MS/MS analysis; assay type: ADME, organism-based, Canis lupus familiaris; conditions: in vivo
smiles,measurement,setting,value
O=C1CC[C@H](N2Cc3c(ccc4c3OCC43CCN(C[C@@H]4CCC5(CCN(c6ccc([C@@H]7c8ccc(O)cc8CC[C@@H]7c7ccccc7)cc6)CC5)OC4)CC3)C2=O)C(=O)N1,IC50,[1],> 10 µM
same,Activity,[2],> 80%
same,Activity,[3],Non-toxic
same,IC50,[4],6 µM
same,concentration at 96 h,[5],50 ng/mL
same,Vdss,[6],3.2 L/kg
same,Activity,[7],71%
same,t1/2,[8],> 4 h
same,Activity,[9],66%
same,F,[10],10%
same,Activity,[11],Active
same,inhibition (INH),[12],43.7%
same,Activity,[13],Active
same,t1/2,[14],> 1 h
same,concentration at 24 h,[15],94 ng/mL
same,Activity,[16],> 80%
same,Activity,[17],inactive
same,PPB,[18],99%
same,PPB,[19],98.9%
same,Activity,[20],Dose-dependent-effect
same,inhibition in vivo at 10 mg/kg,[21],75%
same,t1/2,[22],23.2 h
